Measured values as given in US12479816B2, “20-HETE formation inhibitors” (UNIVERSITY OF PITTSBURGH—OF THE COMMONWEALTH SYSTEM OF …, priority 2019, dated 2025).

Test system: MDR1 (P-gp)
Experiment: BBB penetration potential, MDR1-MDCK permeability
Format: in vitro ADME
Settings: dog, apical to basolateral, pH 7.4, read-out: BBB penetration potential MDCK A-B 10−6 cm/s
Description: BBB penetration potential assessment data in Table 1 was obtained as follows. MDR1-MDCK cell monolayers were grown to confluence on collagen-coated, microporous membranes in 12-well assay plates. Atenolol, propranolol and digoxin were used as control to assess plate quality. The permeability assay buffer was Hanks' balanced salt solution containing 10 mM HEPES and 15 mM glucose at a pH of 7.4. The buffer in the receiver chamber also contained 1% bovine serum albumin. The dosing solution concentration was 5 μM of test article in the assay buffer. Cell monolayers were dosed on the apical side (A-to-B) or basolateral side (B-to-A) and incubated at 37° C. with 5% CO2 in a humidified incubator. Samples were taken from the donor and receiver chambers at 120 minutes. Each determination was performed in duplicate the flux of lucifer yellow was also measured post-experimentally for each monolayer to ensure no damage was inflicted to the cell monolayers during the flux period. All samples were assayed by LC-MS/MS using electrospray ionization using a PE SCIEX API 4000 spectrometer and total run time of 1 min. Analytical method/conditions were: Liquid Chromatography Column: Waters ACQUITY UPLC BEH Phenyl 30×2.1 mm, 1.7 m; M.P. Buffer: 25 mM ammonium formate buffer, pH 3.5; Aqueous Reservoir (A): 90% water, 10% buffer; Organic Reservoir (B): 90% acetonitrile, 10% buffer; Flow Rate: 0.7 mL/minute; gradient program: 99% A (t=0 min), 1% A (t=0.65 min), 1% A (t=0.75 min), 99% A (t=0.8 min), 99% A (t=1 min); 5 μL injection volume
The apparent permeability (Papp) and percent recovery were calculated as follows: Papp=(dCr/dt)×Vr/(A×CA) (1) Percent Recovery=100×((Vr×Cr^final)+(Vd×Cd^final))/(Vd×CN) (2)
wherein: • dCr/dt is the slope of the cumulative concentration in the receiver compartment versus time in μMs^−1; • Vr is the volume of the receiver compartment in cm^3; • Vd is the volume of the donor compartment in cm^3; • A is the area of the insert (1.13 cm^2 for 12-well); • CA is the average of the nominal dosing concentration and the measured 120 minute donor concentration in μM; • CN is the nominal concentration of the dosing solution in μM; • Cr^final is the cumulative receiver concentration in μM at the end of the incubation period; • Cd^final is the concentration of the donor in μM at the end of the incubation period. Efflux ratio (ER) is defined as Papp (B-to-A)/Papp (A-to-B) Interpretation Brain Penetration Potential Classification: • Papp (A-to-B)≥3.0 and ER<3.0: High • Papp (A-to-B)≥3.0 and 10>ER≥3.0: Moderate • Papp (A-to-B)≥3.0 and ER≥10, or Papp (A-to-B)<3.0 Low

Q: For `c1ccc(CC2CCN(c3cn[nH]c3)CC2)cc1` [Compound 3, 4-Benzyl-1-(1H-pyrazol-4-yl)piperidine], which Papp A→B at 120 min, 5 μM is on record?
A: 62 ×10⁻⁶ cm/s

Q: For `COc1ccc(C2CCN(c3cn[nH]c3)CC2)cc1` [Compound 20, 4-(4-Methoxyphenyl)-1-(1H-pyrazol-4-yl)piperidine], which Papp A→B at 120 min, 5 μM is on record?
A: 32 ×10⁻⁶ cm/s

Q: For `CC(=O)N(C)c1ccc(C2CCN(c3cn[nH]c3)CC2)cc1` [Compound 28, N-(4-(1-(1H-Pyrazol-4-yl)piperidin-4-yl)phenyl)-N-methylacetamide], which Papp A→B at 120 min, 5 μM is on record?
A: 18.4 ×10⁻⁶ cm/s

Q: For `Cc1cccc(C2CCN(c3cn[nH]c3)CC2)c1` [Compound 34, 1-(1H-Pyrazol-4-yl)-4-(m-tolyl)piperidine], which Papp A→B at 120 min, 5 μM is on record?
A: 60.1 ×10⁻⁶ cm/s

Q: For `O=C1CCCN1Cc1ccc(C2CCN(c3cn[nH]c3)CC2)cc1` [Compound 83, 1-(4-(1-(1H-Pyrazol-4-yl)piperidin-4-yl)benzyl)pyrrolidin-2-one], which Papp A→B at 120 min, 5 μM is on record?
A: 5.16 ×10⁻⁶ cm/s

Q: With `Clc1ccc(CC2CCN(c3cn[nH]c3)CC2)cc1` [Compound 93, 4-(4-Chlorobenzyl)-1-(1H-pyrazol-4-yl)piperidine] as the molecule, how does the Papp A→B at 120 min, 5 μM read?
A: 44.3 ×10⁻⁶ cm/s

Q: With `O=C1CCCN1c1ccc(C2CCN(c3cn[nH]c3)CC2)cc1` [Compound 100, 1-(4-(1-(1H-Pyrazol-4-yl)piperidin-4-yl)phenyl)pyrrolidin-2-one] as the molecule, how does the Papp A→B at 120 min, 5 μM read?
A: 22.2 ×10⁻⁶ cm/s

Same assay, conditions: dog, basolateral to apical, pH 7.4, read-out: BBB penetration potential MDCK B-A 10−6 cm/s

Q: For `c1ccc(CC2CCN(c3cn[nH]c3)CC2)cc1` [Compound 3, 4-Benzyl-1-(1H-pyrazol-4-yl)piperidine], which Papp B→A at 120 min, 5 μM is on record?
A: 60 ×10⁻⁶ cm/s

Q: For `COc1ccc(C2CCN(c3cn[nH]c3)CC2)cc1` [Compound 20, 4-(4-Methoxyphenyl)-1-(1H-pyrazol-4-yl)piperidine], which Papp B→A at 120 min, 5 μM is on record?
A: 25.7 ×10⁻⁶ cm/s

Q: For `CC(=O)N(C)c1ccc(C2CCN(c3cn[nH]c3)CC2)cc1` [Compound 28, N-(4-(1-(1H-Pyrazol-4-yl)piperidin-4-yl)phenyl)-N-methylacetamide], which Papp B→A at 120 min, 5 μM is on record?
A: 40.2 ×10⁻⁶ cm/s

Q: Which Papp B→A at 120 min, 5 μM does the source give for `Cc1cccc(C2CCN(c3cn[nH]c3)CC2)c1` [Compound 34, 1-(1H-Pyrazol-4-yl)-4-(m-tolyl)piperidine] here?
A: 48.6 ×10⁻⁶ cm/s

Q: Which Papp B→A at 120 min, 5 μM does the source give for `O=C1CCCN1Cc1ccc(C2CCN(c3cn[nH]c3)CC2)cc1` [Compound 83, 1-(4-(1-(1H-Pyrazol-4-yl)piperidin-4-yl)benzyl)pyrrolidin-2-one] here?
A: 41.6 ×10⁻⁶ cm/s

Q: Which Papp B→A at 120 min, 5 μM does the source give for `Clc1ccc(CC2CCN(c3cn[nH]c3)CC2)cc1` [Compound 93, 4-(4-Chlorobenzyl)-1-(1H-pyrazol-4-yl)piperidine] here?
A: 40 ×10⁻⁶ cm/s

Q: For `O=C1CCCN1c1ccc(C2CCN(c3cn[nH]c3)CC2)cc1` [Compound 100, 1-(4-(1-(1H-Pyrazol-4-yl)piperidin-4-yl)phenyl)pyrrolidin-2-one], which Papp B→A at 120 min, 5 μM is on record?
A: 46.9 ×10⁻⁶ cm/s

Test system: not listed separately
Experiment: Turbidometric solubility determination
Format: physicochemical
Settings: PBS with 1% DMSO, aqueous buffer, kinetic from dmso stock, room temperature, OD620, read-out: Max Solub
Outline: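 Kinetic turbidimetric solubility: DMSO stocks diluted 1:100 into PBS in triplicate to give 0–600 μM in 1% DMSO. Shaken 2 h at room temperature, then OD620 read. Solubility limit taken as the concentration giving a statistically significant absorbance rise above background.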

Q: Which solubility at 2 h does the source give for `c1ccc(C2CCN(c3cn[nH]c3)CC2)cc1` [Compound 1, 4-Phenyl-1-(1H-pyrazol-4-yl)piperidine] here?
A: 121 µM

Q: Which solubility at 2 h does the source give for `c1ccc(CC2CCN(c3cn[nH]c3)CC2)cc1` [Compound 3, 4-Benzyl-1-(1H-pyrazol-4-yl)piperidine] here?
A: 505 µM

Q: With `COc1ccc(C2CCN(c3ccn[nH]3)CC2)cc1` [Compound 19, 4-(4-Methoxyphenyl)-1-(1H-pyrazol-5-yl)piperidine] as the molecule, how does the solubility at 2 h read?
A: 106 µM

Q: With `COc1ccc(C2CCN(c3cn[nH]c3)CC2)cc1` [Compound 20, 4-(4-Methoxyphenyl)-1-(1H-pyrazol-4-yl)piperidine] as the molecule, how does the solubility at 2 h read?
A: 35 µM

Q: For `CC(=O)N(C)c1ccc(C2CCN(c3cn[nH]c3)CC2)cc1` [Compound 28, N-(4-(1-(1H-Pyrazol-4-yl)piperidin-4-yl)phenyl)-N-methylacetamide], which solubility at 2 h is on record?
A: > 600 µM

Q: With `Cc1cccc(C2CCN(c3cn[nH]c3)CC2)c1` [Compound 34, 1-(1H-Pyrazol-4-yl)-4-(m-tolyl)piperidine] as the molecule, how does the solubility at 2 h read?
A: > 600 µM

Q: Which solubility at 2 h does the source give for `c1ccc(C2CCN(c3ccn[nH]3)CC2)cc1` [Compound 54, 4-Phenyl-1-(1H-pyrazol-5-yl)piperidine] here?
A: > 600 µM

Q: Which solubility at 2 h does the source give for `O=C1CCCN1Cc1ccc(C2CCN(c3cn[nH]c3)CC2)cc1` [Compound 83, 1-(4-(1-(1H-Pyrazol-4-yl)piperidin-4-yl)benzyl)pyrrolidin-2-one] here?
A: > 600 µM

Q: With `Clc1ccc(CC2CCN(c3cn[nH]c3)CC2)cc1` [Compound 93, 4-(4-Chlorobenzyl)-1-(1H-pyrazol-4-yl)piperidine] as the molecule, how does the solubility at 2 h read?
A: 117 µM

Q: Which solubility at 2 h does the source give for `O=C1CCCN1c1ccc(C2CCN(c3cn[nH]c3)CC2)cc1` [Compound 100, 1-(4-(1-(1H-Pyrazol-4-yl)piperidin-4-yl)phenyl)pyrrolidin-2-one] here?
A: 74 µM

Same assay, conditions: PBS with 1% DMSO, aqueous buffer, kinetic from dmso stock, room temperature, read-out: Solubility_ug/mL

Q: For `c1ccc(C2CCN(c3cn[nH]c3)CC2)cc1` [Compound 1, 4-Phenyl-1-(1H-pyrazol-4-yl)piperidine], which solubility at 2 h is on record?
A: 28 µg/mL

Q: Which solubility at 2 h does the source give for `c1ccc(CC2CCN(c3cn[nH]c3)CC2)cc1` [Compound 3, 4-Benzyl-1-(1H-pyrazol-4-yl)piperidine] here?
A: 122 µg/mL

Q: With `COc1ccc(C2CCN(c3ccn[nH]3)CC2)cc1` [Compound 19, 4-(4-Methoxyphenyl)-1-(1H-pyrazol-5-yl)piperidine] as the molecule, how does the solubility at 2 h read?
A: 27.3 µg/mL

Q: Which solubility at 2 h does the source give for `COc1ccc(C2CCN(c3cn[nH]c3)CC2)cc1` [Compound 20, 4-(4-Methoxyphenyl)-1-(1H-pyrazol-4-yl)piperidine] here?
A: 9 µg/mL

Q: With `CC(=O)N(C)c1ccc(C2CCN(c3cn[nH]c3)CC2)cc1` [Compound 28, N-(4-(1-(1H-Pyrazol-4-yl)piperidin-4-yl)phenyl)-N-methylacetamide] as the molecule, how does the solubility at 2 h read?
A: 179 µg/mL

Q: For `Cc1cccc(C2CCN(c3cn[nH]c3)CC2)c1` [Compound 34, 1-(1H-Pyrazol-4-yl)-4-(m-tolyl)piperidine], which solubility at 2 h is on record?
A: 145 µg/mL

Q: For `c1ccc(C2CCN(c3ccn[nH]3)CC2)cc1` [Compound 54, 4-Phenyl-1-(1H-pyrazol-5-yl)piperidine], which solubility at 2 h is on record?
A: 137 µg/mL
